Several values for one entry are separate records, joined by “and”; a condition that tells them apart may be missing. Identical values can stand only once.
Legend:
[1] = test system: HT-29 cells / U937 cells; test: TNF-α-induced adhesion of HT-29 intestinal epithelial cells and U937 mononuclear cells; format: cell-based, human; settings: Homo sapiens, TNF-α 10 ng/ml, read-out: Inhibitory rates (%); for inhibition at 1 µM: pre-treated 1 hour
Procedure: HT-29 cells were cultured in a 24-well plate at a concentration of […] cells/cm^2, and meanwhile, amidopyridinol compounds 8a to 8z were pre-treated for 1 hour at each concentration in a serum-free medium supplemented only with 1% PS. Next, 10 ng/ml of TNF-α was treated therewith to allow a reaction at a temperature of 37° C. for 3 hours. After the completion of the reaction, the medium of the HT-29 cells was removed, and then, the HT-29 cells were washed with PBS once. Afterwards, U937 cells, which were treated and reacted with 10 μg/mL of BCECF-AM at a temperature of 37° C. for 30 minutes, were allowed to react with the HT-29 cells at temperature of 37° C. for 1 hour. Then, to remove U937 cells that were not adhered to the HT-29 cells, the reacted cells were washed with PBS twice. In terms of cell dissolution, 0.1% Triton X-100 in 0.1M Tris was allowed to react with the cells for 30 minutes at room temperature, and then, the cells were subjected to quantify by measuring fluorescence thereof using the Fluostar optima microplate reader (BMG Labtechnologies, Germany).

[2] = test system: TNBS-induced colitis; test: TNBS-induced colitis model of inflammatory bowel disease; format: in vivo, rat (Sprague Dawley); settings: for conditions of the large intestine observed with the naked eye / changes in weights of the rat: TNBS-induced rats; for weight of the large intestine: vs TNBS-treated group
Text: To see alleviating effects of the compounds of the present invention on colitis, an animal model induced by TNBS and having colitis was used for the experiments. The animal used herein was a 7 to 8 week Sprague Dawley species purchased from Samtaco Bio Korea. After the purchase, the animal was stabilized with typical solid feed for 2 days before being used for the experiments. The animal was freely supplied with feed and water during the experiments, and stayed in conditions maintaining a cage temperature of about 25±1° C. and relative humidity of about 50±10%. The cage was equipped with an automatic lightening system to adjust 12-hour light-dark cycle.
In regard to the experimental groups, 5 groups (i.e., a control group, a group administered with TNBS only, […], […], […]) were used according to the randomized block design, wherein each group consists of 6 rats having an average weight of about 180±10 g. The rats that had been fasting for 24 hours were anesthetized with diethylether (Et2O), and then, a 1 mL syringe connected with a polyethylene catheter was used to slowly inject 0.8 mL of 3% TNBS into colonic enema through the anus, wherein TNBS was diluted with 50% (v/v) ethanol. To prevent leakage of 3% TNBS from the anus, the rats turned upside down and let stand for 60 minutes.
In regard to the control group, only a vehicle (50% (v/v) ethanol) was injected into the rats of the control group in the same manner as in preparation of other experimental groups. To examine the effects of the drug, after being fasting for 24 hours, the rats were administered with drugs, i.e., 0.1 mg/kg or 1.0 mg/kg of Compounds 8a and 8j, once a day at a certain time from the second day to the fifth day of the TNBS treatment. As a comparative experimental material, 5-ASA, which is an active metabolite of sulfasalazine that is the most well-known as a therapeutic agent for IBDs, was used as a positive control group.
All the rats were scarified on the seventh day of the TNBS administration. […] After the large intestine of the rat was harvested, a 5 to 6 cm-long tissue from was cut from the anus to a size of 1 cm, and then, subjected to measure an intestine weight and activation of myeloperoxidase (MPO) in the tissue, and to perform a biopsy. In addition, changes in weight of all the animals used in the experiments were observed by using a digital mass meter, beginning from the fasting step, the TNBS administration, and the drug administration. In consideration of the management and use of laboratory animals, the animal experiments were followed according to institutional guidelines from Laboratory Animal Resources, Yeungnam University.
To measure the activation of MPO, an MPO assay was used. The colorectal tissue was washed with cold PBS, and a weight thereof was measured. Then, 200 μL of lysis buffer (pH7.4, 200 mM NaCl, 5 mM EDTA, 10 mM Tris, 10% glycerol) was added for each 10 mg of the weight of the tissue, and then, the tissue homogenizer (Bio homogenizer M133, BIOSPEC PRODUCTS Inc. USA) was used for 30 seconds in terms of homogenization. The homogenized sample was subjected to centrifugation (1500×g) twice, each for 15 minutes. The supernatant obtained therefrom was used to measure the activation of MPO by using the MPO ELISA kit (HK210, Hycult Biotechnology, Netherlands). 100 μL of the supernatant was added to the 96-well plates, each of which well was coated with an anti-mouse MPO antibody, to allow a reaction at room temperature for 1 hour, followed by being washed with PBS three times. Here, 100 μL of a reconstituted tracer was added thereto to allow a reaction at room temperature for 1 hour, followed by being washed three times repeatedly. Then, 100 μL of a reptavidin-peroxidase conjugate was added thereto to allow a reaction at room temperature for 1 hours, followed being washed. Then, 100 μL of a TMB substrate solution was added thereto to allow a reaction for 30 minutes. […]

[3] = test system: A549 lung cancer cells; test: CAM inoculated with A549 lung cancer cells: angiogenesis and tumor growth; format: in vivo, chicken; settings: for Inhibition rates of angiogenesis (%) / Inhibition rates of tumor growth (%): A549 on CAM, 5 days
Procedure: To confirm inhibitory effects on angiogenesis through in vivo experiments, the CAM analysis was carried out (refer to Nguyen M et al., Microvascular Res., 47, pp 31-40, 1994). A fertilized egg of a chicken was cultured in conditions maintaining a temperature of 37° C. and relative humidity of 55%. On the 9th day of the culturing, a first small hole was made on an air sac part using a hypodermic needle (Green Cross Medical Corp., Korea), and then, a second hole was made on a flat part of the fertilized egg to make a window thereon. Air was removed through the first hole, i.e., the air sac part, and accordingly, the CAM was separated from the shell of the fertilized egg. Then, a grinding wheel (Multipro 395JA, Dremel, Mexico) was used to cut the air sac part, thereby making a window thereon. Meanwhile, A549 lung cancer cells were mixed with matrigel at a ratio of 1:1, and then, the mixture was treated with Compounds 8a, 8b, and 8g, respectively, followed by being inoculated at a density of 1.5×10^6 cells/CAM.
After 5 days of the inoculation, the CAM part on which tumors were formed was isolated, and then, washed with PBS. The Stemi SV6 stereomicroscope (Carl Zeiss, Germany) and the Image-Pro Plus software (Media Cybernetics; Silver Spring, Md., USA) were used to capture images of the CAM part, so as to measure the number of the blood vessels and to analyze data obtained therefrom.

[4] = test system: cathepsin S; test: RT-PCR of cathepsin S gene expression in MDA-MB-231 cells; format: cell-based; settings: Homo sapiens, MDA-MB-231, 24 h, screening, 1 μM of each compound; MDA-MB-231, RT-PCR; read-out: Inhibition rate of expression of cathepsin S (%)
Procedure: Each compound of the present invention was treated with breast cancer cells (1×10^5 cell/cm^2), e.g., MDA-MB-231, and then, cultured at a temperature of 37° C. for 24 hours in a cell incubator. Afterwards, a trizole reagent was used to extract the entire mRNA therefrom. 24 hours later, the culture medium was removed therefrom, 1 mL of the triazole reagent was added to each well, and then, the cell elusion was transferred to a 1.5 mL tube. After 200 μl of chloroform was added to each sample, the samples were subjected to centrifugation at a temperature of 4° C., at 12,000 g, for 15 minutes. 500 μl of the supernatant obtained therefrom was transferred to a new tube. After 500 μl of isopropylalcohol was added to each sample, the samples were subjected to centrifugation at a temperature of 4° C., at 12,000 g, for 15 minutes. The supernatant obtained therefrom was removed from each sample, and then, the samples were washed with 75% ethanol to clean mRNA while the precipitants were dried. Then, mRNA extracted therefrom was dissolved in RNase-free water, followed by being heated at a temperature of 55° C. for 10 minutes.
After the RNA quantification, the GoScript™ reverse transcription system (Promega Corporation, Madison, Wis., USA) was used to synthesize cDNA. Here, PCR was performed by using TaKaRa Taq™ (Takara bio Inc., Shiga, Japan), wherein a primer set of cathepsin S consists of a forward primer having SEQ ID NO: 1 (forward sequence: 5′-GCAGTGGCACAGTTGCATAA-3′) and a reverse primer having SEQ ID NO: 2 (reverse sequence: 5′-AGCACCACAAGAACCCATGT-3′). After the PCR product was subjected to agarose gel electrophoresis, the PCR product was stained with ethidium bromide (0.5 μg/ml), thereby obtaining images thereof by using the gel imaging system (UVP, Cambridge, UK). Here, the PCR product was quantified based on glyceraldehyde 3-phosphate dehydrogenase (GAPDH). A GAPDH primer used herein consists of a forward primer having SEQ ID NO: 3 (forward sequence: 5′-GGTGAAGGTCGGAGTCAACG-3′) and a reverse primer having SEQ ID NO: 4 (reverse sequence: 5′-CAAAGTTGTCATGGATGACC-3′).
Furthermore, to screen other amidopyridinol derivatives that inhibit metastasis of breast cancer cells, inhibitory effects on expression of cathepsin S genes were reviewed by treating 1 μM of each compound, in the same manner as in Experimental Example 9.

[5] = test system: VEGF-induced angiogenesis in chicken chorioallantoic membrane (CAM); test: CAM analysis of VEGF-induced angiogenesis; format: in vivo; settings: for inhibition in vivo at 0.01 nmol/CAM: Gallus gallus, 72 h, VEGF (20 ng/CAM) + Compound (0.01 nmol/CAM), number of blood vessels after 3 days, read-out: Inhibitory rates (%)
Procedure: To confirm inhibitory effects on angiogenesis through in vivo experiments, the chorioallantoic membrane (CAM) analysis was carried out (refer to Nguyen M et al., Microvascular Res., 47, pp 31-40, 1994). A fertilized egg of a chicken was cultured in conditions maintaining a temperature of 37° C. and relative humidity of 55%. On the 10th day of the culturing, a first small hole was made on an air sac part using a hypodermic needle (Green Cross Medical Corp., Korea), and then, a second hole was made on a flat part of the fertilized egg to make a window thereon. Air was removed through the first hole, i.e., the air sac part, and accordingly, the CAM was separated from the shell of the fertilized egg. Then, a grinding wheel (Multipro 395JA, Dremel, Mexico) was used to cut the air sac part, thereby making a window thereon. Next, the whatman filter disk #1 (Whatman Company, USA) was treated with 3 mg/mL of cortisone acetate, dried, and then, wet by VEGF at a concentration of 20 ng/CAM. The filter disk was placed on blood vessels through the window, and then, compounds prepared according to Examples above were each dissolved in DMSO, diluted with PBS, and then, treated for each concentration. After 3 days of treating the compounds, the CAM part on which the filter disk was placed was isolated, and then, washed with PBS. The Stemi SV6 stereomicroscope (Carl Zeiss, Germany) and the Image-Pro Plus software (Media Cybernetics; Silver Spring, Md., USA) were used to capture images of the CAM part, so as to measure the number of the blood vessels and to analyze data obtained therefrom.

Nc1ccc(O)c(C(=O)O)c1 [Compound 5-ASA, 5-aminosalicylic acid, reference compound]
inhibition at 20000 µM ([1]; 20 mM): 46.8%
activation of myeloperoxidase (MPO) in colorectal tissue ([2]; 100 mg/kg): significantly decreased activation of MPO
conditions of the large intestine observed with the naked eye ([2]; 100 mg/kg): significantly inhibited
weight of the large intestine ([2]; 100 mg/kg): significantly decreased
changes in weights of the rat ([2]; 300 mg/kg): slowly recovered on the third day

Cc1nc(NC(=O)C2CCCC2)c(C)c(C)c1O [Compound 8g, N-(5-hydroxy-3,4,6-trimethylpyridine-2-yl)cyclopentane carboxamide]
inhibition at 1 µM [1]: 42.8%
Inhibition rates of angiogenesis (%) ([3]; 0.001 pmol/CAM): 30.9 ± 8.5 %
Inhibition rates of tumor growth (%) ([3]; 0.001 pmol/CAM): 13.2 ± 3.5%
Inhibition rates of angiogenesis (%) ([3]; 0.01 pmol/CAM): 48.4 ± 4.1 %
Inhibition rates of tumor growth (%) ([3]; 0.01 pmol/CAM): 24.0 ± 1.6 %
Inhibition rates of angiogenesis (%) ([3]; 0.1 pmol/CAM): 54.4 ± 6.7 %
Inhibition rates of tumor growth (%) ([3]; 0.1 pmol/CAM): 45.1 ± 3.1 %
Inhibition rates of angiogenesis (%) ([3]; 1.0 pmol/CAM): 58.1 ± 6.8 %
Inhibition rates of tumor growth (%) ([3]; 1.0 pmol/CAM): 62.7 ± 2.3 %
inhibitory effects on angiogenesis and tumor growth (in words) ([3]; at each density): inhibited angiogenesis upon tumorigenesis, as well as tumor growth
inhibition at 1 µM [4]: ≥ 50%
inhibition in vivo at 0.01 nmol/CAM [5]: 81.8 ± 8.4%
ID50 against inhibition of angiogenesis ([5]; VEGF-induced CAM angiogenesis): 0.9 pg/CAM and 3.6 fmol/CAM

Cc1nc(NC(=O)CCc2ccccc2)c(C)c(C)c1O [Compound 8j, N-(5-hydroxy-3,4,6-trimethylpyridine-2-yl)-3-phenylpropanamide]
inhibition at 1 µM [1]: 72.5%
changes in weights of the rat ([2]; 1.0 mg/kg once a day): significant weight recovery and increased weight
conditions of the large intestine observed with the naked eye ([2]; 1.0 mg/kg): excellent inhibitory effects on swelling and congestion
weight of the large intestine ([2]; 1.0 mg/kg): significantly decreased
inhibition in vivo at 0.01 nmol/CAM [5]: 74.2 ± 3.9%
